This passage reports Activity results from ChEMBL document CHEMBL1250444, “Nitric oxide activates TRP channels by cysteine S-nitrosylation” (Nat Chem Biol, 2006).

Experiment [1] addresses T1, Short transient receptor potential channel 5 (Homo sapiens) (UniProt Q9UL62).
T1 sequence (whole entry): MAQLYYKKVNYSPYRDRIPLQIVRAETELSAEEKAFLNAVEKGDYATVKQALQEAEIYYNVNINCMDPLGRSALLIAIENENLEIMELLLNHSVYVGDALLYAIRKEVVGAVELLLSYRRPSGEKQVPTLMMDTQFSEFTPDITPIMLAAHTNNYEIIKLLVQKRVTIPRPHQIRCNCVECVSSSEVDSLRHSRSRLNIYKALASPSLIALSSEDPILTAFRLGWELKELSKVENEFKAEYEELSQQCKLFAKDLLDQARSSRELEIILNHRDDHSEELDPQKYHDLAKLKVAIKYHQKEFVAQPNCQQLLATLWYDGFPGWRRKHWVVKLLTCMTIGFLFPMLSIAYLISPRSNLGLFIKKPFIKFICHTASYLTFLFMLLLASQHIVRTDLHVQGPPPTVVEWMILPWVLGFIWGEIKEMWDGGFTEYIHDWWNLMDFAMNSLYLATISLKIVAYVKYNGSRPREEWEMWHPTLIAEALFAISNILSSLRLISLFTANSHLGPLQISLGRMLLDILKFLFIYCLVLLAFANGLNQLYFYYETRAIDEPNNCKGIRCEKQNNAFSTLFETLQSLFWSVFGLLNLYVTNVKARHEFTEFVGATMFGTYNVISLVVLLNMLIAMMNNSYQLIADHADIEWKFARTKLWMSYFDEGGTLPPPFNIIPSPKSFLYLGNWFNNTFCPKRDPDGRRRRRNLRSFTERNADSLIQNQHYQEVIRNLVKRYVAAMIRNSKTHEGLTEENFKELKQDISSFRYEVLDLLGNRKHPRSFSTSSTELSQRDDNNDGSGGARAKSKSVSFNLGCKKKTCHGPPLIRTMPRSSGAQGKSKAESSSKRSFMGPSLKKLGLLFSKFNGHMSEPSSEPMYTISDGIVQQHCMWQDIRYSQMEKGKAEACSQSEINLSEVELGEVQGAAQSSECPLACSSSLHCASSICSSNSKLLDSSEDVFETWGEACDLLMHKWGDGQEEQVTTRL
The experiment is described as follows: Activation of TRPC5 expressed in BAEC expressing dominant negative mutant of TRPC5 assessed as increase in Ca2+ level from extracellular space at 300 uM.

Experiment [2] has as its target T1, Short transient receptor potential channel 5 (Homo sapiens). The experiment is described as follows: Induction of S-nitrosylation of TRPC5 in HEK cells assessed as inhibition of incorporation of DTNB-2Bio at 300 uM. In kind it is cell-based. Conditions: HEK293.
For experiment [3], the system named is HEK293. The experiment is described as follows: Activation of rat TRPV1 Cys621 mutant expressed in HEK cells assessed as increase in Ca2+ level from extracellular space at 0.1 to 1 mM. In kind it is cell-based.
In experiment [4] the target is T1, Short transient receptor potential channel 5 (Homo sapiens). Description: Activation of TRPC5 expressed in BAEC expressing TRPC5 siRNA assessed as increase in Ca2+ level from extracellular space at 300 uM.
In experiment [5] the target is Transient receptor potential cation channel subfamily V member 1 (Rattus norvegicus) (UniProt O35433). The experiment is described as follows: Activation of rat TRPV1 expressed in HEK cells assessed as increase in Ca2+ level from extracellular space at 300 uM. The conditions noted are these: HEK293. Type of experiment: cell-based.
In experiment [6] the test system is HEK293. Description: Induction of rat TRPV1 Cys621 mutant S-nitrosylation expressed in HEK cells assessed as increase in Ca2+ level from extracellular space at 0.1 to 1 mM. Type of experiment: cell-based.
Experiment [7] deals with T2, Short transient receptor potential channel 5 (Homo sapiens), Q9UL62 [C558S].
T2 sequence (whole entry): T1 sequence (whole entry) with C558S
The experiment is described as follows: Decrease in TRPC5 C558S mutant S-nitrosylation in HEK cells assessed as inhibition of incorporation of DTNB-2Bio at 300 uM relative to control. Type of experiment: cell-based. Conditions: HEK293.

The target of experiment [8] is Transient receptor potential cation channel subfamily M member 7 (Homo sapiens) (UniProt Q96QT4). Description: Induction of TRPM7 S-nitrosylation in HEK cells assessed as increase in Ca2+ level from extracellular space at 30 uM. In kind it is cell-based. The conditions noted are these: HEK293.
Experiment [9] addresses Transient receptor potential cation channel subfamily V member 1 (Rattus norvegicus) (UniProt O35433). The experiment is described as follows: Activation of rat TRPV1 expressed in HEK cells assessed as increase in Ca2+ level from extracellular space at 10 uM. In kind it is cell-based. Conditions: HEK293.
The target of experiment [10] is T1, Short transient receptor potential channel 5 (Homo sapiens). Description: Activation of TRPC5 expressed in BAEC expressing TRPC5 siRNA assessed as increase in Ca2+ level from extracellular space at 100 uM.
Experiment [11] concerns the target Transient receptor potential cation channel subfamily M member 2 (Homo sapiens) (UniProt O94759). The experiment is described as follows: Induction of TRPM2 S-nitrosylation in HEK cells assessed as increase in Ca2+ level from extracellular space at 30 uM. In kind it is cell-based. Conditions: HEK293.
The target of experiment [12] is Transient receptor potential cation channel subfamily V member 4 (Homo sapiens) (UniProt Q9HBA0). The experiment is described as follows: Activation of TRPV4 in HEK cells assessed as increase in Ca2+ level from extracellular space at 10 uM. In kind it is cell-based. Conditions: HEK293.

Positions count from the first letter of the chain named. Calls of active or inactive are those of the source. No cut-off for these calls is given here.

Sequence of Transient receptor potential cation channel subfamily V member 1 (Rattus norvegicus) (O35433 whole entry): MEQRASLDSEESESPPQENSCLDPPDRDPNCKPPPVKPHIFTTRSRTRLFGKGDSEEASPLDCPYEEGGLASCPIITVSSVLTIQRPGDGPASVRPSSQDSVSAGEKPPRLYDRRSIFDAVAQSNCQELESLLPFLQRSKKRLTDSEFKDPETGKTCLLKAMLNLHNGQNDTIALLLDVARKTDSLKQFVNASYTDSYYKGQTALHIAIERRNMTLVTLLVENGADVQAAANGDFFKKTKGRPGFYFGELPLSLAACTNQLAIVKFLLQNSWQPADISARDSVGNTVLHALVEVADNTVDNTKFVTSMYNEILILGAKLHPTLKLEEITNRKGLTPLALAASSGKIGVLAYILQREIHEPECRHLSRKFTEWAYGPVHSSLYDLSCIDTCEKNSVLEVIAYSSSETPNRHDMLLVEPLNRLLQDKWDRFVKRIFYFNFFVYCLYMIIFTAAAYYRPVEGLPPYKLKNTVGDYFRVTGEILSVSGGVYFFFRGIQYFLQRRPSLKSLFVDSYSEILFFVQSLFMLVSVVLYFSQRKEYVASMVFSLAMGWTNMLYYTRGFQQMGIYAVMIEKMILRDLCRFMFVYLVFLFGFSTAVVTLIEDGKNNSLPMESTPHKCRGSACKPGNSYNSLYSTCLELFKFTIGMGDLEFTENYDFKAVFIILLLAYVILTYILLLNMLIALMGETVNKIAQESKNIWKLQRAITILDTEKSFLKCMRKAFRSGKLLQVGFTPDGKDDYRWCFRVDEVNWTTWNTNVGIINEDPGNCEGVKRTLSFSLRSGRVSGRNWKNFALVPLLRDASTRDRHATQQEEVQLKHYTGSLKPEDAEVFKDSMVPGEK
Sequence of Transient receptor potential cation channel subfamily M member 7 (Homo sapiens) (Q96QT4 whole entry): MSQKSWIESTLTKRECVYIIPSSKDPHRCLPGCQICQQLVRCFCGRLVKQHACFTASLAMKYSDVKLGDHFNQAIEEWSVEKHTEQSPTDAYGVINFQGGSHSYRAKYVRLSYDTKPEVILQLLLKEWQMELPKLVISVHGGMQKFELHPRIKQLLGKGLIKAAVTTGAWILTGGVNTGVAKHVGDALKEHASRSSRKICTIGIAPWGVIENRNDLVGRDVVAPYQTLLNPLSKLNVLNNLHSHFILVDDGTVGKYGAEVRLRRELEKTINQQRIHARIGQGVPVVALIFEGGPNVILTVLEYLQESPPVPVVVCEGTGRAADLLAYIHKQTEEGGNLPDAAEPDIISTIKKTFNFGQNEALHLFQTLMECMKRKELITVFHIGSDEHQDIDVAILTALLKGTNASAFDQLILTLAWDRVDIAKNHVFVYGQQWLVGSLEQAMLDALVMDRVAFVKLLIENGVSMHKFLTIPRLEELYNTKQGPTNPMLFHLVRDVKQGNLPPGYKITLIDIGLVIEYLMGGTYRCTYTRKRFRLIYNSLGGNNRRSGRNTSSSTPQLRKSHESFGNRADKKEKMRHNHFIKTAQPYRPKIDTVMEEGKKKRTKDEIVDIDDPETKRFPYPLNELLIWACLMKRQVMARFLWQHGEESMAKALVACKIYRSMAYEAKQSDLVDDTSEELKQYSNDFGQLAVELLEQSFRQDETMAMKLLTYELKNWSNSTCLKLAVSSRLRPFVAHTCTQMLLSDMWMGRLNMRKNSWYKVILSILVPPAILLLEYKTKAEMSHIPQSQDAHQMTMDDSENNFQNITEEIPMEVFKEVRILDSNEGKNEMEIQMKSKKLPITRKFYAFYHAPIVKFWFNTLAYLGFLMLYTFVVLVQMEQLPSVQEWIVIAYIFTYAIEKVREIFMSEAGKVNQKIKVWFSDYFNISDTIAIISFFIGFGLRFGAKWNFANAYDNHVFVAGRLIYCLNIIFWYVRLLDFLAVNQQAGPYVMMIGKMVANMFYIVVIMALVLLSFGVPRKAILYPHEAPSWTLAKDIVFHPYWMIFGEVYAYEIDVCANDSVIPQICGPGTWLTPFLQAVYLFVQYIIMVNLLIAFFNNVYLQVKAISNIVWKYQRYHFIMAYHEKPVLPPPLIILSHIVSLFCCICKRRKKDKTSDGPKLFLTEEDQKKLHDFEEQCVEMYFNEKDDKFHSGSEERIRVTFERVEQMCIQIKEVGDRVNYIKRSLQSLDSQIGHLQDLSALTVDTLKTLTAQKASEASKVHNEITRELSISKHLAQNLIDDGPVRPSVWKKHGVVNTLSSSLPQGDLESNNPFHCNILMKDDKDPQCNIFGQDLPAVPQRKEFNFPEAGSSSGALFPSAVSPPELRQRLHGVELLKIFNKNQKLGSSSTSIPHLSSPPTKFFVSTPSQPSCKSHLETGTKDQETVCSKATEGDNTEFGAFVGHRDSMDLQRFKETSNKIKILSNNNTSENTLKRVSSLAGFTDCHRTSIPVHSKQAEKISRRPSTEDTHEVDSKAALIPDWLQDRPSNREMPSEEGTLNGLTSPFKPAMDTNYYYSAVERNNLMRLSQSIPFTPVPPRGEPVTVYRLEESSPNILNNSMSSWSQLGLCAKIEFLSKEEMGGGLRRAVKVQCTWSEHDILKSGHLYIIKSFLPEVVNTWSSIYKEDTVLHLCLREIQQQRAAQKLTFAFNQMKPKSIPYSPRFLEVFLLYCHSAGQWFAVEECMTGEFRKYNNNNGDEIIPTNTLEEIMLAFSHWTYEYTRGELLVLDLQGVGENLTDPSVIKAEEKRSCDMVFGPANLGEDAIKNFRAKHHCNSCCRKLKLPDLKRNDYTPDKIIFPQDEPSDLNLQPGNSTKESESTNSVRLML
Sequence of Transient receptor potential cation channel subfamily V member 4 (Homo sapiens) (Q9HBA0 whole entry): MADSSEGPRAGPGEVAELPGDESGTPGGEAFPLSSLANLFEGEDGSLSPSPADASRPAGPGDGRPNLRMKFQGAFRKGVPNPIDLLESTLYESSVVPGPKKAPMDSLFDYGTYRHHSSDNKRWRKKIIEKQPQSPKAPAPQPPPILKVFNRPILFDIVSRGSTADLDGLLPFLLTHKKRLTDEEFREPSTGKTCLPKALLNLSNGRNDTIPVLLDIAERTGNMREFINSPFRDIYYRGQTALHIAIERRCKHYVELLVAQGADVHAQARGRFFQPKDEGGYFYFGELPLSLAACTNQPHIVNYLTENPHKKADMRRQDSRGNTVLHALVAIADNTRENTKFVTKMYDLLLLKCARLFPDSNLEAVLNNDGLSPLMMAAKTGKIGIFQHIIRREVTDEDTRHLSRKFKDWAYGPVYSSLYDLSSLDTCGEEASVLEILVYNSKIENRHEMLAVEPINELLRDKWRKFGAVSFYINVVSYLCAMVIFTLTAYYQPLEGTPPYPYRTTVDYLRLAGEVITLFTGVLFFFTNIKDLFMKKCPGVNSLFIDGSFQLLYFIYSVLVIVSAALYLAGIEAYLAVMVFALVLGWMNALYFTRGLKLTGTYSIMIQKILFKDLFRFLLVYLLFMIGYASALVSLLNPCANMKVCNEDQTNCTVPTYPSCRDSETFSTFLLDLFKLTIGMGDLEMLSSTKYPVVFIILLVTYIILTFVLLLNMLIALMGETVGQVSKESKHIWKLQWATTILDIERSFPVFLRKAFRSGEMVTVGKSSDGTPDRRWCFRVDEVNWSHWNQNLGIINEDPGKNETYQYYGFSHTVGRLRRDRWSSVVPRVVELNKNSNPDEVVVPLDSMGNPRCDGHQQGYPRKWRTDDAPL
Sequence of Transient receptor potential cation channel subfamily M member 2 (Homo sapiens) (O94759 whole entry): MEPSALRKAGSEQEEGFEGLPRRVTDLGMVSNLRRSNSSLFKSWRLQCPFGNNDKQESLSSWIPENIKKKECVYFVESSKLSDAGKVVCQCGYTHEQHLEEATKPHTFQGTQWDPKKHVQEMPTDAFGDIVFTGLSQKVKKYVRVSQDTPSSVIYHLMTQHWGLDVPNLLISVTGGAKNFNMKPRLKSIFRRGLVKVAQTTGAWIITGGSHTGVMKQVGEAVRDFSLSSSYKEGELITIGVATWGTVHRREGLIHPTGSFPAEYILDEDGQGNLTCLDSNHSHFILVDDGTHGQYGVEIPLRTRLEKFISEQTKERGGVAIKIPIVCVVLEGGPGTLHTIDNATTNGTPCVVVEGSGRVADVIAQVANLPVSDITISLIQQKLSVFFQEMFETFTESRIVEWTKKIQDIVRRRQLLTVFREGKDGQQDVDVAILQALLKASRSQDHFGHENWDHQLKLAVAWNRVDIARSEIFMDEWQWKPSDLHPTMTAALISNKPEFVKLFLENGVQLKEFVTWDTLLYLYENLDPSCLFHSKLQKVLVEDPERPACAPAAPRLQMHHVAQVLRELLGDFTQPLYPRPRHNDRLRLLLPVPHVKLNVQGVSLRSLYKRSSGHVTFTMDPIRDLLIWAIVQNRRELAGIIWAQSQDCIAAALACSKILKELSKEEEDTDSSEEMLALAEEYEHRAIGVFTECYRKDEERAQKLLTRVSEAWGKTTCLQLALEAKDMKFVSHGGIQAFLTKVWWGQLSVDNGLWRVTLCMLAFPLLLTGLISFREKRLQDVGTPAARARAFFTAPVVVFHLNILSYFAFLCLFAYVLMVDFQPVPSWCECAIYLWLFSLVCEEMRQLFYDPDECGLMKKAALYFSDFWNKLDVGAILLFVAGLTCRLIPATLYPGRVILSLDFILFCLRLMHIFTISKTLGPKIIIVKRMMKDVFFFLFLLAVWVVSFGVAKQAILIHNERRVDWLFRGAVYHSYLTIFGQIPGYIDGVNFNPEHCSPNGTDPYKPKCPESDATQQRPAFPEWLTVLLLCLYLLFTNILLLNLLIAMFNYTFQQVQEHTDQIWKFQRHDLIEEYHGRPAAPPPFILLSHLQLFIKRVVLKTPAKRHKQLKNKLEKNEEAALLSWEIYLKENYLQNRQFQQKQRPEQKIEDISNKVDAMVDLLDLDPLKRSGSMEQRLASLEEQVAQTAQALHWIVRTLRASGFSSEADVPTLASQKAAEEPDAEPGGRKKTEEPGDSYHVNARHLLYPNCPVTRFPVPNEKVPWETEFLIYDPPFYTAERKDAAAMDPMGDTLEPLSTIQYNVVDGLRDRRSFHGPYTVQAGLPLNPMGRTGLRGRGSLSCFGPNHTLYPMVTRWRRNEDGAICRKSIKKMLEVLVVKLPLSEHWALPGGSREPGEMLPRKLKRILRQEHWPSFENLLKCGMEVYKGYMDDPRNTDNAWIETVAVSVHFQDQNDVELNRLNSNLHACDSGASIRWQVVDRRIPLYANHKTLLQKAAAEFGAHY

In the case of `CC(=O)N[C@@H](C(=O)O)C(C)(C)SN=O` (racemic), the outcome in [1], in [3], in [4] and in experiment [6] was inactive. In addition, the result in [2], in experiment [5] and in [7] was Active.
For `O=[N+]([O-])c1ccc(SSc2ccc([N+](=O)[O-])cn2)nc1`, the result in experiment [8], in [10] and in experiment [11] was inactive. Besides, the result in [9] and in [12] was Active.
